Measured values: US20230000842A1, “METHODS OF TREATING CARTILAGE DISORDERS THROUGH INHIBITION OF CLK AND DYRK” (SAMUMED, LLC, priority 2019, published 2023)

What was measured:
CLK2 kinase = CLK2 kinase (Homo sapiens, UniProt P49760); assay: CLK2 kinase activity assay (Z-lyte FRET); format: biochemical; details: Z-lyte Ser/Thr 6 peptide, 60 μM ATP, 1 h at room temperature;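 also: FRET read-out as coumarin to fluorescein emission ratio, unphosphorylated peptide as 0% and phosphorylated peptide as 100% controls, duplicate reactions, non-linear regression fit of dose-response curves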
[1] = test system: primary human mesenchymal stem cells (hMSCs); assay: Chondrogenesis screening using primary human mesenchymal stem cells; format: cell-based; details: Homo sapiens, Mesenchymal stem cells, hMSC chondrogenesis; for Emax: maximum activity relative to TGF-β3 (10 ng/mL) positive control, read-out: Max. Activity as % TGF-β3 activity
In short: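 Derived values are EC50 for 50% chondrogenesis, maximal activity and the dose giving it. These come from nodule area in passage 3–6 primary hMSCs, expressed as fold change over the mean of 3 same-plate DMSO wells, 2–3 replicates per concentration. TGF-β3 served as positive control.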

[2] = test system: MMP-3 levels in supernatant of chondrocytes stimulated with IL1-β; assay: Chondrocyte protection assay compound screening (MMP-3 LANCE Ultra); format: cell-based, human; details: IL1-β 10 ng/mL overnight, 11-point curves from 3 μM to 0.05 nM; for Emax: read-out: Maximum % Inhibition
Method: Human Chondrocyte Cell Culture: Primary human chondrocytes were purchased from Lonza (Walkersville, Md.) and expanded in Chondrocyte Growth Media (CGM, Lonza). Cells between passage 2 and 5 were used for the experiments.
Chondrocytes were plated at 8,000 cells/well in 40 μL/well Chondrocyte Differentiation Medium (Lonza; 500 mL Basal Medium, 25 mL FBS, 0.5 mL GA-1000, 1 mL R3-IGF, 2.5 mL bFGF, 0.5 mL Transferrin, and 1 mL Insulin). After 2 hours of incubation at 37° C. and 5% CO2, IL1-β (Peprotech, Rocky Hill, N.J.) was added to a final concentration of 10 ng/mL. 11 wells in 1 row were left unstimulated for normalization and calculating EC50 values. Cells were incubated at 37° C. and 5% CO2 overnight. Assay plates are spun, 25 μl of supernatant media was collected using (S2 pipettor, Apricot Designs). Cells were lysed using 10 μL of (Cell Titer-Glo, Promega). Luminescent signal detected using an En Vision Multilabel reader (Perkin Elmer). MMP-3 levels were measured in supernatant. Supernatant diluted 1:7 in DMEM. MMP-3 levels in the supernatant were measured using MMP-3 LANCE Ultra detection kit (Perkin Elmer). Briefly, 5 μL of diluted supernatant was transferred to low-volume 384 well plates using (S2 pipettor, Apricot Designs). A standard curve was prepared using MMP-3 analyte (range […]). 1.7 μL of 8× mix of Eu-labelled anti-MMP-3 antibody and ULight labelled anti-MMP-3 antibody was added to the plates using Mantis Liquid handler (Formulatrix). Plates were incubated overnight at room temperature. LANCE signal was detected using an EnVision Multilabel reader (Perkin Elmer), equipped with TR-FRET using excitation wavelength of 320 nm and two emission wavelengths of 615 nm and 665 nm. Data was analyzed according to the kit protocol, using the ratio of […] and the standard curve values were used to calculate the amount of MMP3 in the […] (in pg/ml). The normalized averages (fold change over IL1-β stimulated) for each compound concentration were calculated. EC50 and maximum % inhibition values were calculated using the dose-response nonlinear regression curve-fit in Dotmatics.

[3] = test system: Wnt pathway activity (SW480 colon carcinoma cells stably expressing the Sp5-Luc reporter); assay: Wnt pathway activity screening assay (Sp5-Luc reporter gene assay); details: Homo sapiens, SW480, Table 4; SW480 cells stably expressing Sp5-Luc reporter, 10-point dose-response from 10 μM, 36 to 48 hours
CLK3 kinase = CLK3 kinase (Homo sapiens, UniProt P49761); assay: CLK3 kinase activity assay (Z-lyte FRET); format: biochemical; details: Z-lyte Ser/Thr 18 peptide, 156 μM ATP, 1 h at room temperature;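 also: kinase activity read as coumarin/fluorescein emission ratio by FRET, unphosphorylated peptide as 0% and phosphorylated peptide as 100% control, values from non-linear regression of dose-response curves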
CLK3 kinase, sequence (P49761 whole entry): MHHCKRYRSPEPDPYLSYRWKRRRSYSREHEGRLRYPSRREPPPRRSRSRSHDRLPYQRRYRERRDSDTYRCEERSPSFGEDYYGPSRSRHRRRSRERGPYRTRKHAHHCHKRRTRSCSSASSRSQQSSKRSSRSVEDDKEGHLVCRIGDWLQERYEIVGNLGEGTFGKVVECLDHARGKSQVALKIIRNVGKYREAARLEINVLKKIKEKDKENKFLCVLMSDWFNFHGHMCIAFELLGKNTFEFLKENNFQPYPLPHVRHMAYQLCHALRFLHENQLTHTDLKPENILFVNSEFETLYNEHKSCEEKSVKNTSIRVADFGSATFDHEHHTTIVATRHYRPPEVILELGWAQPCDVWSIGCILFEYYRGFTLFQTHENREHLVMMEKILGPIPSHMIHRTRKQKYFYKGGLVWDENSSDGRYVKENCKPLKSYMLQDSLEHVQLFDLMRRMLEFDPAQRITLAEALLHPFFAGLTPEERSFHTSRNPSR

CLK2 kinase, sequence (P49760 whole entry): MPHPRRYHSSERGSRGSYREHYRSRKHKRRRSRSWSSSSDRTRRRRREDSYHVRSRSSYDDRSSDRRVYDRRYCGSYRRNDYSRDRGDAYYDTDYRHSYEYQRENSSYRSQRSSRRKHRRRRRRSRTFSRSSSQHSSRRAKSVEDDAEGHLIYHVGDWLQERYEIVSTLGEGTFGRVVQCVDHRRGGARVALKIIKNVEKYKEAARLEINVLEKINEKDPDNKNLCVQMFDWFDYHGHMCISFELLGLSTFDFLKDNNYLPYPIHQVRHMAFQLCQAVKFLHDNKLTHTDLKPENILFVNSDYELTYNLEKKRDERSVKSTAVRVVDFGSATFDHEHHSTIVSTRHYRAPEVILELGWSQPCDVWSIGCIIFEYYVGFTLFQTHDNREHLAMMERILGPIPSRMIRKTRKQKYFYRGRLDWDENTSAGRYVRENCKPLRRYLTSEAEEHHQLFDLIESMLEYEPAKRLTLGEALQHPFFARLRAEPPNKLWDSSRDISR

Compound	EC50 (CLK2 kinase)	Emax [1]	EC50 ([2]; Homo sapiens, Chondrocyte)	Emax ([2]; Homo sapiens, Chondrocyte)	EC50 [3]	EC50 ([1]; concentration required to induce 50% levels of chondrogenesis with TGF-β3 as positive control, read-out: Conc (nM) of 50% TGF-β3 activity)	EC50 (CLK3 kinase)	EC50 [2]	Maximum % Inhibition [2]
O=C(Nc1c[nH]nc1C(=O)Nc1cncc(-c2cccc(F)c2)c1)c1cncc(F)c1 [compound 2]	72 nM	81.5%	0.4 nM	58.2%	479 nM	–	–	–	–
COc1cncc(C(=O)Nc2c[nH]nc2C(=O)Nc2ccc(N3CCC(F)(F)C3)nc2)c1 [compound 6]	15 nM	124%	2.2 nM	42.1%	5.7 nM	300 nM	–	–	–
O=C(Nc1cccnc1)Nc1c[nH]nc1C(=O)Nc1ccc(C(F)(F)F)nc1 [compound 16]	95 nM	–	8.7 nM	99.5%	679 nM	–	–	–	–
COc1cncc(C#Cc2c[nH]nc2C(=O)Nc2ccc(OC3CCN(C)CC3)nc2)c1 [compound 30]	18 nM	–	≥ 3000 nM	3.4%	3570 nM	–	–	–	–
COc1cncc(C#Cc2c[nH]nc2C(=O)Nc2ccc(OCCN3CCCC3)nc2)c1 [compound 31]	28 nM	–	≥ 3000 nM	2.4%	1210 nM	–	–	–	–
O=C(Nc1cccnc1)c1n[nH]cc1C#Cc1cncc(OC2CCNCC2)c1 [compound 32]	38 nM	–	0.2 nM	77.8%	1270 nM	–	–	–	–
Cc1n[nH]c2ccc(-c3cncc(OC[C@@H](N)Cc4ccccc4)c3)cc12 [compound 35]	–	–	≥ 3000 nM	99.3%	262 nM	–	–	–	–
Cc1n[nH]c2cc(F)c(-c3cncc(OC4CCNC[C@@H]4F)n3)cc12 (some centres unmarked) [compound 46]	–	43.8%	1050 nM	100%	630 nM	–	–	–	–
Cc1n[nH]c2ccc(-c3cncc(NC(CO)Cc4cccc(C(F)(F)F)c4)n3)cc12 (centres unmarked) [compound 51]	–	–	≥ 3000 nM	48.1%	809 nM	–	–	–	–
O=C(NC1C[C@@H]1c1ccccc1)c1n[nH]c2ccc(-c3cccnc3)cc12 (some centres unmarked) [compound 59]	–	–	1.6 nM	99.2%	1390 nM	–	–	–	–
O=C(NC1C[C@@H]1c1ccccc1)c1n[nH]c2ccc(-c3cncc(CN4CCCCC4)c3)cc12 (some centres unmarked) [compound 76]	–	–	0.4 nM	97.9%	1030 nM	–	–	–	–
CN(C)Cc1ccc(C(=O)Nc2cc3cc(-c4cnn(C)c4)ccc3cn2)cc1 [compound 540]	3 nM	–	47.4 nM	80.7%	–	–	41 nM	–	–
CN1CCN(c2ccc(C(=O)Nc3cc4cc(-c5cnn(C)c5)ccc4cn3)cn2)CC1 [compound 542]	–	–	–	–	–	–	36 nM	9.5 nM	47.6%
CN(C)CCNc1cc(C(=O)Nc2cc3cc(-c4cnn(C)c4)ccc3cn2)ccn1 [compound 543]	3 nM	–	306 nM	81.8%	–	–	60 nM	–	–
CN(C)CCOc1cc(C(=O)Nc2cc3cc(-c4cnn(C)c4)ccc3cn2)ccn1 [compound 544]	2 nM	–	1010 nM	63.5%	–	–	31 nM	–	–
CN1CCN(c2cc(C(=O)Nc3cc4cc(-c5cnn(C)c5)c(F)cc4cn3)ccn2)CC1 [compound 546]	2 nM	–	0.4 nM	97.3%	–	–	21 nM	–	–
CN1CCCN(c2cc(C(=O)Nc3cc4cc(-c5cnn(C)c5)ccc4cn3)ccn2)CC1 [compound 550]	–	–	≥ 3000 nM	66.9%	–	–	28 nM	–	–
CN1CCN(c2ccc(C(=O)Nc3cc4cc(-c5cnn(C)c5)ccc4cn3)cn2)CC1 [compound 551]	–	–	–	–	–	–	78 nM	1060 nM	100.0%
